Experimental data: patent US10046022B2, “Synthetic peptide that increases radiosensitivity of tumor cells and use of same” (TOAGOSEI CO., LTD., priority 2015, dated 2018)
Peptide text beside a SMILES is read from it.

System: HeLaS3 cells
Assay: Radiosensitizing activity: cell survival rate (Cell Counting Kit-8, WST-8) of HeLaS3 cells after peptide and X-ray irradiation
Type: cell-based, human
Conditions: peptide 50 μM, X-ray dose 0 Gy, compared with 0 μM peptide
Procedure: Radiosensitizing activity of the radiosensitizing synthetic peptide (Sample 1) obtained in Example 1 was evaluated by measuring cell survival rates during culturing after having irradiated test cells supplied with the radiosensitizing synthetic peptide with radiation (here, X-rays).
Human carcinoma-derived cells (HeLaS3 cells) and cells derived from normal human tissue (CCD-1079Sk cells) were used for the test cells. […] Details of the evaluation test are as indicated below.
First, a cultured cell line derived from human cervical cancer in the form of HeLaS3 cells (ATCC™ CCL2.2) were prepared for use as test cells derived from a human tumor. […]
Next, at the point 48 hours had elapsed following X-ray irradiation, the viability of the test cells (the number of viable cells) was measured using a commercially available chromogenic assay kit (Cell Counting Kit-8, Dojindo Molecular Technologies, Inc.). Namely, the number of viable cells was measured by colorimetry by quantifying the amount of water-soluble formazan in the medium by measuring using absorption spectrophotometry (measuring wavelength: 450 nm, reference wavelength: 650 nm) based on the principle that the tetrazolium salt in the reagent is reduced by enzyme activity of viable cells resulting in the formation of water-soluble formazan. […]

## N=C(N)NCCC[C@H](NC(=O)[C@H](CCCNC(=N)N)NC(=O)[C@H](CO)NC(=O)[C@H](CCCCN)NC(=O)[C@H](CO)NC(=O)[C@H](CCCCN)NC(=O)[C@@H](N)CS)C(=O)N[C@@H](CO)C(=O)N[C@@H](CS)C(=O)O [Sample 1, CKSKSRRSC] (H-CKSKSRRSC-OH)
  cell survivability, Test Group 1 in comparison with Test Group 2 (cytotoxicity attributable to the peptide): slightly lower
